# In patent publication US10654814B2, “Bicyclic hydroxamic acids useful as inhibitors of mammalian histone deacetylase activity” (KANCERA AB, priority 2015, dated 2020):
# Where a name gives a salt, the structure may show the parent alone.
# Target: HDAC6 (Homo sapiens (Human), UniProt Q9UBN7)
# Assay: HDAC6 in vitro enzymatic assay (fluorescence)
# Assay type: biochemical
# Conditions: Table 3; read-out: IC50 (nM) for inhibition of HDAC6
# Description: Biological Tests Method for Measurement of Enzymatic Activity of HDACs Materials & Methods
# All Examples were tested in HDAC1,2,3,6 and 8 in vitro enzymatic assays. The assay principle is well known (Hauser et al. 2009, Bradner et al. 2010) and all necessary reagents like enzymes, substrates, developer and reference compounds are commercially available (see e.g. BPS Biosciences http://www.bpsbioscience.com/). Stock solutions (10 mM in DMSO) of compounds were serially diluted 1:3 in 11 concentrations with a top concentration of 200 μM for HDAC1,2,3 and 2 μM for HDAC6 and HDAC8. The enzymatic reactions were conducted in a mixture containing assay buffer, bovine serum albumin, HDAC substrate, and a test compound. After enzymatic reaction, developer was added and after an additional incubation time, fluorescence intensity was measured at an excitation wavelength of 360 nm and an emission wavelength of 460 nm. All experiments were performed in duplicate.
# Sequence of HDAC6 (Q9UBN7 whole entry): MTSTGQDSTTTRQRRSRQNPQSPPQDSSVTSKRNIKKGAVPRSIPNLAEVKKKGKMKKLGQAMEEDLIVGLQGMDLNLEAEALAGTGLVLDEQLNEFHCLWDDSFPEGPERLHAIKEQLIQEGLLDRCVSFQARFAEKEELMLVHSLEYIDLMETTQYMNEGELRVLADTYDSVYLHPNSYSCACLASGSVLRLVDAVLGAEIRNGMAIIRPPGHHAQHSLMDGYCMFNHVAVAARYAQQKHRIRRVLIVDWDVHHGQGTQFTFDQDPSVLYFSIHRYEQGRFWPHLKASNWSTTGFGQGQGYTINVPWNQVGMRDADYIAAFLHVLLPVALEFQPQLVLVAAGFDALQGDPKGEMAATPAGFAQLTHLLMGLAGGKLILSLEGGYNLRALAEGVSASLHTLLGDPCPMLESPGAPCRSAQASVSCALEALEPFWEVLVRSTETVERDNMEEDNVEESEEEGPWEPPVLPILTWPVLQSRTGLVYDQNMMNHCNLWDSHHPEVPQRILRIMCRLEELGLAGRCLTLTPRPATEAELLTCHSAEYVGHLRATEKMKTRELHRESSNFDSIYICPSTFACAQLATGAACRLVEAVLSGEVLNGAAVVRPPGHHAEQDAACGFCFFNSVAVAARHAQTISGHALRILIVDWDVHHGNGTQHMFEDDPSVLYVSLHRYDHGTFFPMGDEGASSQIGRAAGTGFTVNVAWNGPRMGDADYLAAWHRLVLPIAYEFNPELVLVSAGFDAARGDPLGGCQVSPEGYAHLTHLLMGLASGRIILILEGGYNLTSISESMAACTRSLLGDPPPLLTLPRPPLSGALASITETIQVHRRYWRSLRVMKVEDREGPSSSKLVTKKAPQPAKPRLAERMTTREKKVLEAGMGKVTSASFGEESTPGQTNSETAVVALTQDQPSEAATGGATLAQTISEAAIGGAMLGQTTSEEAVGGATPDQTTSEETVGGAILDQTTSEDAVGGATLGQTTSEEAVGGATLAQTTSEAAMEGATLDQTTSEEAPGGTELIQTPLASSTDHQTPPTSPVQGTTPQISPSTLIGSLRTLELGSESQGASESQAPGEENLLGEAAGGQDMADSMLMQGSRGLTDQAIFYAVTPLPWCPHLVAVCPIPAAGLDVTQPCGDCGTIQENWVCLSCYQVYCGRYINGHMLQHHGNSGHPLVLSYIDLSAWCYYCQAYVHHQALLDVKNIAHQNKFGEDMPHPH
row,IC50 [nM],SMILES
1,37,"O=C(NO)c1ccc2sc(-c3cc(F)ccc3O)cc2c1 [Example 105, 2-(5-fluoro-2-hydroxyphenyl)-N-hydroxy-1-benzothiophene-5-carboxamide]"
2,96,"COc1ccc(-c2cc3cc(C(=O)NO)ccc3o2)cn1 [Example 278, N-hydroxy-2-(6-methoxypyridin-3-yl)-1-benzofuran-5-carboxamide]"
3,8,"CC(C)c1ccc(NCc2nc3cc(C(=O)NO)ccc3s2)cc1 [Example 275, N-Hydroxy-2-({[4-(1-methylethyl)phenyl]amino}methyl)-1,3-benzothiazole-5-carboxamide]"
4,74,"O=C(NO)c1ccc2cc(CO)oc2c1 [Example 119, N-hydroxy-2-(hydroxymethyl)-1-benzofuran-6-carboxamide]"
5,22,"O=C(NO)c1ccc2sc(-c3ccc4[nH]ccc4c3)cc2c1 [Example 95, N-hydroxy-2-(1H-indol-5-yl)-1-benzothiophene-5-carboxamide]"
6,42,"CC(C)c1ccc(-c2cc3cc(C(=O)NO)cnc3s2)cc1 [Example 87, N-Hydroxy-2-[4-(1-methylethyl)phenyl]thieno[2,3-b]pyridine-5-carboxamide]"
7,47,"COc1ncccc1-c1cc2cc(C(=O)NO)ccc2s1 [Example 97, N-hydroxy-2-(2-methoxypyridin-3-yl)-1-benzothiophene-5-carboxamide]"
8,9,"COc1ccc(-c2cc3cc(C(=O)NO)ccc3s2)cc1 [Example 93, N-hydroxy-2-(4-methoxyphenyl)-1-benzothiophene-5-carboxamide]"
9,20,"O=C(NO)c1ccc2oc(-c3ccc(-c4ccccc4)cc3F)nc2c1 [Example 173, 2-(3-Fluorobiphenyl-4-yl)-N-hydroxy-1,3-benzoxazole-5-carboxamide]"
10,44,"O=C(NO)c1ccc2oc(-c3ccc4c(c3)OCCO4)nc2c1 [Example 219, 2-(2,3-Dihydro-1,4-benzodioxin-6-yl)-N-hydroxy-1,3-benzoxazole-5-carboxamide]"
11,23,"CC(C)c1ccc(-c2cc3ncc(C(=O)NO)cc3o2)cc1 [Example 115, N-Hydroxy-2-[4-(1-methylethyl)phenyl]furo[3,2-b]pyridine-6-carboxamide]"
12,27,"O=C(NO)c1ccc2oc(N(Cc3ccccc3)c3ccccc3)nc2c1 [Example 241, 2-[benzyl(phenyl)amino]-N-hydroxy-1,3-benzoxazole-5-carboxamide]"
13,72,"O=C(NO)c1ccc2nc(Nc3cccc(-c4ccccc4)c3)[nH]c2c1 [Example 136, 2-([1,1′-biphenyl]-3-ylamino)-N-hydroxy-1H-benzo[d]imidazole-6-carboxamide]"
14,7,"O=C(NO)c1ccc2nc(NCc3ccc(-c4ccccc4)cc3)[nH]c2c1 [Example 125, 2-(([1,1′-biphenyl]-4-ylmethyl)amino)-N-hydroxy-1H-benzo[d]imidazole-6-carboxamide]"
15,7,"Cn1c(N2CCC(Cc3ccccc3)CC2)nc2cc(C(=O)NO)ccc21 [Example 143, 2-(4-benzylpiperidin-1-yl)-N-hydroxy-1-methyl-1H-benzo[d]imidazole-5-carboxamide]"
16,32,"O=C(NO)c1ccc2oc(-c3cccc(O)c3)nc2c1 [Example 220, N-hydroxy-2-(3-hydroxyphenyl)-1,3-benzoxazole-5-carboxamide]"
17,92,"O=C(NO)c1ccc2oc(-c3ccccc3CO)cc2c1 [Example 281, N-hydroxy-2-[2-(hydroxymethyl)phenyl]-1-benzofuran-5-carboxamide]"
18,10,"Cn1c(NCCc2ccccc2)nc2cc(C(=O)NO)ccc21 [Example 140, N-hydroxy-1-methyl-2-(phenethylamino)-1H-benzo[d]imidazole-5-carboxamide]"
19,27,"Cc1[nH]c2ccccc2c1-c1nc2cc(C(=O)NO)ccc2o1 [Example 228, N-hydroxy-2-(2-methyl-1H-indol-3-yl)-1,3-benzoxazole-5-carboxamide]"
20,51,"O=C(NO)c1ccc2oc(NC3CCCCCCC3)nc2c1 [Example 232, 2-(cyclooctylamino)-N-hydroxy-1,3-benzoxazole-5-carboxamide]"
21,9,"O=C(NO)c1ccc2cc(-c3ccccc3)oc2c1 [Example 282, N-Hydroxy-2-phenyl-1-benzofuran-6-carboxamide]"

# The remaining lines, values behind:
row,SMILES,IC50 [nM]
1,"O=C(NO)c1ccc2oc(Nc3cccc(OCc4ccccc4)c3)nc2c1 [Example 47, 2-{[3-(benzyloxy)phenyl]amino}-N-hydroxy-1,3-benzoxazole-5-carboxamide]",31
2,"CC(C)c1ccc(-c2cc3cc(C(=O)NO)ccc3[nH]2)cc1 [Example 60, N-Hydroxy-2-[4-(1-methylethyl)phenyl]-1H-indole-5-carboxamide]",62
3,"COc1ccc(-c2nc3cc(C(=O)NO)ccc3s2)cc1 [Example 78, N-hydroxy-2-(4-methoxyphenyl)-1,3-benzothiazole-5-carboxamide]",12
4,"N#Cc1ccc(-c2nc3cc(C(=O)NO)ccc3o2)cc1 [Example 36, 2-(4-Cyanophenyl)-N-hydroxy-1,3-benzoxazole-5-carboxamide]",56
5,"O=C(NO)c1ccc2oc(-c3ccc(-c4ccncc4)cc3)nc2c1 [Example 22, N-hydroxy-2-(4-pyridin-4-ylphenyl)-1,3-benzoxazole-5-carboxamide]",13
6,"O=C(NO)c1ccc2oc(-c3ccc4[nH]nnc4c3)nc2c1 [Example 39, 2-(1H-Benzotriazol-5-yl)-N-hydroxy-1,3-benzoxazole-5-carboxamide]",26
7,"O=C(NO)c1ccc2oc(N3CCc4ccccc4C3)nc2c1 [Example 46, 2-(3,4-dihydroisoquinolin-2(1H)-yl)-N-hydroxy-1,3-benzoxazole-5-carboxamide]",48
8,"O=C(NO)c1ccc2oc(-c3ccc(-c4ccccc4)nc3)nc2c1 [Example 161, N-Hydroxy-2-(6-phenylpyridin-3-yl)-1,3-benzoxazole-5-carboxamide trifluoroacetate]",22
9,"C[C@@H]1CN(Cc2cccc(-c3nc4cc(C(=O)NO)ccc4o3)c2)C[C@H](C)O1 [Example 202, 2-(3-{[(cis)-2,6-dimethylmorpholin-4-yl]methyl}phenyl)-N-hydroxy-1,3-benzoxazole-5-carboxamide trifluoroacetate]",53
10,"CC(C)(C)c1ccc(-c2nc3ccc(C(=O)NO)cc3o2)cc1 [Example 51, 2-(4-tert-butylphenyl)-N-hydroxy-1,3-benzoxazole-6-carboxamide]",22
11,"O=C(NO)c1ccc2oc(-c3ccc(CN4CCN(c5ccncc5)CC4)cc3)nc2c1 [Example 209, N-hydroxy-2-{4-[(4-pyridin-4-ylpiperazin-1-yl)methyl]phenyl}-1,3-benzoxazole-5-carboxamide trifluoroacetate]",35
12,"O=C(NO)c1ccc2sc(Cc3ccc(F)cc3)nc2c1 [Example 79, 2-(4-fluorobenzyl)-N-hydroxy-1,3-benzothiazole-5-carboxamide]",7
13,"O=C(NO)c1ccc2oc(NCCc3ccccc3)nc2c1 [Example 45, N-hydroxy-2-[(2-phenylethyl)amino]-1,3-benzoxazole-5-carboxamide]",21
14,"CC(C)c1ccc(-c2cc3cc(C(=O)NO)cnc3[nH]2)cc1 [Example 84, N-Hydroxy-2-[4-(1-methylethyl)phenyl]-1H-pyrrolo[2,3-b]pyridine-5-carboxamide]",19
15,"CC1CCN(c2ccc(-c3nc4cc(C(=O)NO)ccc4o3)cn2)CC1 [Example 152, N-Hydroxy-2-[6-(4-methylpiperidin-1-yl)pyridin-3-yl]-1,3-benzoxazole-5-carboxamide trifluoroacetate]",30
16,"O=C(NO)c1ccc2oc(-c3ccccc3)nc2c1 [Example 7, N-hydroxy-2-phenyl-1,3-benzoxazole-5-carboxamide]",15
17,"CC(C)c1ccc(-c2nc3ccc(C(=O)NO)cc3o2)cc1 [Example 49, N-Hydroxy-2-[4-(1-methylethyl)phenyl]-1,3-benzoxazole-6-carboxamide]",9
18,"O=C(NO)c1ccc2oc(-c3ccc(-c4ccc(CN5CCCCC5)cc4)cc3)nc2c1 [Example 30, N-Hydroxy-2-[4′-(piperidin-1-ylmethyl)biphenyl-4-yl]-1,3-benzoxazole-5-carboxamide trifluoroacetate]",14
19,"CN(C)Cc1ccc(-c2cc3ccc(C(=O)NO)cc3o2)cc1 [Example 283, 2-{4-[(dimethylamino)methyl]phenyl}-N-hydroxy-1-benzofuran-6-carboxamide trifluoroacetate]",7
20,"CCc1ccc(-c2nc3cc(C(=O)NO)ccc3s2)cc1 [Example 82, 2-(4-Ethylphenyl)-N-hydroxy-1,3-benzothiazole-5-carboxamide]",11
21,"CC(C)c1ccc(-c2nc3ncc(C(=O)NO)cc3[nH]2)cc1 [Example 57, N-Hydroxy-2-[4-(1-methylethyl)phenyl]-1H-imidzo[4,5-b]pyridine-6-carboxamide]",11
22,"CC(C)c1ccc(-c2nc3cc(C(=O)NO)cnc3o2)cc1 [Example 83, N-Hydroxy-2-[4-(1-methylethyl)phenyl][1,3]oxazolo[5,4-b]pyridine-6-carboxamide]",25
23,"O=C(NO)c1ccc2oc(-c3ccc(NC4CCCCCC4)nc3)nc2c1 [Example 158, 2-[6-(cycloheptylamino)pyridin-3-yl]-N-hydroxy-1,3-benzoxazole-5-carboxamide trifluoroacetate]",34
24,"O=C(NO)c1ccc2sc(Cc3ccc(-c4ccncc4)cc3)nc2c1 [Example 272, N-Hydroxy-2-(4-pyridin-4-ylbenzyl)-1,3-benzothiazole-5-carboxamide trifluoroacetate]",6
